Laboratory results: patent US9920339B2, “Methods, reagents and cells for biosynthesizing compounds” (INVISTA North America S.á r.l., priority 2014, dated 2018)

Legend:
[1] = system: Chromobacterium violaceum ω-transaminase (SEQ ID NO: 8); experiment: ω-transaminase enzyme activity assay, amine substrate plus pyruvate to L-alanine (cell free extract); type: biochemical; settings: reverse direction, 10 mM substrate, 10 mM pyruvate, 100 μM pyridoxyl 5′ phosphate, pH 7.5, 25° C., 4 h, L-alanine by RP-HPLC
Method: A nucleotide sequence encoding an N-terminal His-tag was added to the genes from Chromobacterium violaceum and Rhodobacter sphaeroides encoding the ω-transaminases of SEQ ID NOs: 8 and 10 respectively (see FIG. 10) such that N-terminal HIS tagged ω-transaminases could be produced. Each of the resulting modified genes was cloned into a pET21a expression vector under control of the T7 promoter and each expression vector was transformed into a BL21[DE3] E. coli host. The resulting recombinant E. coli strains were cultivated at 37° C. in a 250 mL shake flask culture containing 50 mL LB media and antibiotic selection pressure, with shaking at 230 rpm. Each culture was induced overnight at 16° C. using 1 mM IPTG.
(§1) The pellet from each induced shake flask culture was harvested via centrifugation. Each pellet was resuspended and lysed via sonication. The cell debris was separated from the supernatant via centrifugation and the cell free extract was used immediately in enzyme activity assays.
Enzyme activity assays in the reverse direction (i.e., 5-aminopentanoate to glutarate semialdehyde) were performed in a buffer composed of a final concentration of 50 mM HEPES buffer (pH=7.5), 10 mM 5-aminopentanoate, 10 mM pyruvate and 100 μM pyridoxyl 5′ phosphate. Each enzyme activity assay reaction was initiated by adding cell free extract of the ω-transaminase gene product or the empty vector control to the assay buffer containing the 5-aminopentanoate and incubated at 25° C. for 4 h, with shaking at 250 rpm. The formation of L-alanine from pyruvate was quantified via RP-HPLC.
(§2) A nucleotide sequence encoding an N-terminal His-tag was added to the Chromobacterium violaceum, Pseudomonas aeruginosa, Pseudomonas syringae, Rhodobacter sphaeroide, Escherichia coli and Vibrio fluvialis genes encoding the ω-transaminases of SEQ ID NOs: 8-13, respectively (see FIG. 10) such that N-terminal HIS tagged ω-transaminases could be produced. The modified genes were cloned into a pET21a expression vector under the T7 promoter. Each expression vector was transformed into a BL21[DE3] E. coli host. Each resulting recombinant E. coli strain were cultivated at 37° C. in a 250 mL shake flask culture containing 50 mL LB media and antibiotic selection pressure, with shaking at 230 rpm. Each culture was induced overnight at 16° C. using 1 mM IPTG.
(§3) Enzyme activity assays in the reverse direction (i.e., 5-aminopentanol to 5-oxopentanol) were performed in a buffer composed of a final concentration of 50 mM HEPES buffer (pH=7.5), 10 mM 5-aminopentanol, 10 mM pyruvate, and 100 μM pyridoxyl 5′ phosphate. Each enzyme activity assay reaction was initiated by adding cell free extract of the ω-transaminase gene product or the empty vector control to the assay buffer containing the 5-aminopentanol and then incubated at 25° C. for 4 h, with shaking at 250 rpm. The formation of L-alanine was quantified via RP-HPLC.
as §2, with “and” for “Rhodobacter sphaeroide,”, “coli” for “coli and Vibrio fluvialis”, “8-10 and 12,” for “8-13,”
Enzyme activity assays in the reverse direction (i.e., cadaverine to 5-aminopentanal) were performed in a buffer composed of a final concentration of 50 mM HEPES buffer (pH=7.5), 10 mM cadaverine, 10 mM pyruvate, and 100 μM pyridoxyl 5′ phosphate. […]

[2] = target: T1, Escherichia coli ω-transaminase (SEQ ID NO: 12) (Escherichia coli, UniProt P42588); experiment: as above; type: biochemical; settings: for accepted as substrate as confirmed against the empty vector control: reverse direction, 10 mM substrate, 10 mM pyruvate, 100 μM pyridoxyl 5′ phosphate, pH 7.5, 25° C., 4 h, L-alanine by RP-HPLC; for accepted as substrate, concluded from the reversibility of the ω-transaminase activity: forward (amine-forming) direction, inferred from the reverse assay
T1 construct: His-tag (N); made in house; host or cells: E. coli BL21[DE3], pET21a
Method: as §2, §1, §3
as §2, with “and” for “Rhodobacter sphaeroide,”, “coli” for “coli and Vibrio fluvialis”, “8-10 and 12,” for “8-13,”
as §3, with “cadaverine” for “5-aminopentanol”, “5-aminopentanal)” for “5-oxopentanol)”, “cadaverine,” for “5-aminopentanol,”
(§4) The activity of the N-terminal His-tagged ω-transaminases of SEQ ID NOs: 8, 10-13 (see Example 3, and FIG. 10) for converting N5-acetyl-1,5-diaminopentane to N5-acetyl-5-aminopentanal was assayed using a buffer composed of a final concentration of 50 mM HEPES buffer (pH=7.5), 10 mM N5-acetyl-1,5-diaminopentane, 10 mM pyruvate and 100 μM pyridoxyl 5′ phosphate. Each enzyme activity assay reaction was initiated by adding a cell free extract of the ω-transaminase or the empty vector control to the assay buffer containing the N5-acetyl-1,5-diaminopentane then incubated at 25° C. for 4 h, with shaking at 250 rpm. The formation of L-alanine was quantified via RP-HPLC.
(§5) The activity of the N-terminal His-tagged ω-transaminases of SEQ ID NOs: 8-13 (see Example 3, and FIG. 10) for converting 1-aminopentane to pentanal was assayed using a buffer composed of a final concentration of 50 mM HEPES buffer (pH=7.5), 10 mM 1-aminopentane, 10 mM pyruvate and 100 μM pyridoxyl 5′ phosphate. […]

[3] = system: Pseudomonas syringae ω-transaminase (SEQ ID NO: 10); experiment: as above; type: biochemical; settings: for accepted as substrate as confirmed against the empty vector control: reverse direction, 10 mM substrate, 10 mM pyruvate, 100 μM pyridoxyl 5′ phosphate, pH 7.5, 25° C., 4 h, L-alanine by RP-HPLC; for accepted as substrate, concluded from the reversibility of the ω-transaminase activity: forward (amine-forming) direction, inferred from the reverse assay
Method: as §2, §1, §3
as §2, with “and” for “Rhodobacter sphaeroide,”, “coli” for “coli and Vibrio fluvialis”, “8-10 and 12,” for “8-13,”
as §3, with “cadaverine” for “5-aminopentanol”, “5-aminopentanal)” for “5-oxopentanol)”, “cadaverine,” for “5-aminopentanol,”
as §4, §5

[4] = system: Rhodobacter sphaeroides ω-transaminase (SEQ ID NO: 11); experiment: as above; type: biochemical; settings: for accepted as substrate as confirmed against the empty vector control: reverse direction, 10 mM substrate, 10 mM pyruvate, 100 μM pyridoxyl 5′ phosphate, pH 7.5, 25° C., 4 h, L-alanine by RP-HPLC; for accepted as substrate, concluded from the reversibility of the ω-transaminase activity: forward (amine-forming) direction, inferred from the reverse assay
Method: as §2, §1, §3, §4
as §4, with “8-13” for “8, 10-13”, “1-aminopentane” for “N5-acetyl-1,5-diaminopentane”, “pentanal” for “N5-acetyl-5-aminopentanal”, “1-aminopentane,” for “N5-acetyl-1,5-diaminopentane,”
as §4, with “8-13” for “8, 10-13”, “1-aminoheptane” for “N5-acetyl-1,5-diaminopentane”, “heptanal” for “N5-acetyl-5-aminopentanal”, “1-aminoheptane,” for “N5-acetyl-1,5-diaminopentane,”

[5] = system: Vibrio fluvialis ω-transaminase (SEQ ID NO: 13); experiment: as above; type: biochemical; settings: for accepted as substrate as confirmed against the empty vector control: reverse direction, 10 mM substrate, 10 mM pyruvate, 100 μM pyridoxyl 5′ phosphate, pH 7.5, 25° C., 4 h, L-alanine by RP-HPLC; for accepted as substrate, concluded from the reversibility of the ω-transaminase activity: forward (amine-forming) direction, inferred from the reverse assay
Method: as §2, §1, §3, §4
as §4, with “8-13” for “8, 10-13”, “1-aminopentane” for “N5-acetyl-1,5-diaminopentane”, “pentanal” for “N5-acetyl-5-aminopentanal”, “1-aminopentane,” for “N5-acetyl-1,5-diaminopentane,”
as §4, with “8-13” for “8, 10-13”, “1-aminoheptane” for “N5-acetyl-1,5-diaminopentane”, “heptanal” for “N5-acetyl-5-aminopentanal”, “1-aminoheptane,” for “N5-acetyl-1,5-diaminopentane,”

[6] = system: acetylputrescine deacetylase from Micrococcus luteus K-11; settings: Suzuki et al., 1986; cited from earlier work
[7] = system: Pseudomonas aeruginosa ω-transaminase (SEQ ID NO: 9); experiment: ω-transaminase enzyme activity assay, amine substrate plus pyruvate to L-alanine (cell free extract); type: biochemical; settings: for accepted as substrate as confirmed against the empty vector control: reverse direction, 10 mM substrate, 10 mM pyruvate, 100 μM pyridoxyl 5′ phosphate, pH 7.5, 25° C., 4 h, L-alanine by RP-HPLC; for accepted as substrate, concluded from the reversibility of the ω-transaminase activity: forward (amine-forming) direction, inferred from the reverse assay
Method: as §2, §1, §3
as §2, with “and” for “Rhodobacter sphaeroide,”, “coli” for “coli and Vibrio fluvialis”, “8-10 and 12,” for “8-13,”
as §3, with “cadaverine” for “5-aminopentanol”, “5-aminopentanal)” for “5-oxopentanol)”, “cadaverine,” for “5-aminopentanol,”
as §4, with “8-13” for “8, 10-13”, “1-aminopentane” for “N5-acetyl-1,5-diaminopentane”, “pentanal” for “N5-acetyl-5-aminopentanal”, “1-aminopentane,” for “N5-acetyl-1,5-diaminopentane,”
as §5, with “1-aminoheptane” for “1-aminopentane”, “heptanal” for “pentanal”, “1-aminoheptane,” for “1-aminopentane,”

gene product of ygjG = gene product of ygjG (Escherichia coli, UniProt P42588); settings: Samsonova et al., 2003; cited from earlier work
[8] = system: Chromobacterium violaceum ω-transaminase (SEQ ID NO: 8); experiment: ω-transaminase enzyme activity assay, amine substrate plus pyruvate to L-alanine (cell free extract); type: biochemical; settings: forward (amine-forming) direction, inferred from the reverse assay

T1 sequence (P42588 whole entry): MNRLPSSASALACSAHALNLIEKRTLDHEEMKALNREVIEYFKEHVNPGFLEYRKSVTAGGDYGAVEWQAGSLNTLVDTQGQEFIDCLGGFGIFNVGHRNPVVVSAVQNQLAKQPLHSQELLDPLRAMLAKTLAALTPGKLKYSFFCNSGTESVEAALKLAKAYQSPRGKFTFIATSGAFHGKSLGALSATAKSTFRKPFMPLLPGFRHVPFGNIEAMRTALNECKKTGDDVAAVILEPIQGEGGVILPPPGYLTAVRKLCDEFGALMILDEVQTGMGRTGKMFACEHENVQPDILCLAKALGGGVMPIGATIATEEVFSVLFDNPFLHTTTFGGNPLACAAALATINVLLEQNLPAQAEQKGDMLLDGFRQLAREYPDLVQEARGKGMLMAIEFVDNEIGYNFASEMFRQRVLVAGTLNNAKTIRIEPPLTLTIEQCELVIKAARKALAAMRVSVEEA
Sequence of gene product of ygjG (P42588 whole entry): as above

CC(=O)NCCCCCN [N5-acetyl-1,5-diaminopentane]
accepted: accepted as substrate as confirmed against the empty vector control [1] | accepted as substrate as confirmed against the empty vector control [2] | accepted as substrate as confirmed against the empty vector control [3] | accepted as substrate as confirmed against the empty vector control [4] | accepted as substrate as confirmed against the empty vector control [5]

CC(=O)NCCCCN [acetylputrescine]
accepts: accepted as substrate [6]

NCCCCCO [5-aminopentanol]
accepted: accepted as substrate as confirmed against the empty vector control [1] | accepted as substrate as confirmed against the empty vector control [7] | accepted as substrate as confirmed against the empty vector control [2] | accepted as substrate as confirmed against the empty vector control [3] | accepted as substrate as confirmed against the empty vector control [4] | accepted as substrate as confirmed against the empty vector control [5]

NCCCCN [putrescine]
accepts: accepted as diamine substrate (gene product of ygjG)

NCCCCC(=O)O [5-aminopentanoate]
accepted: accepted as substrate as confirmed against the empty vector control [1]

NCCCCNCCCN [spermidine]
accepts: accepted as diamine substrate (gene product of ygjG)

NCCCCC=O [5-aminopentanal]
accept: accepted as substrate, concluded from the reversibility of the ω-transaminase activity [7] | accepted as substrate, concluded from the reversibility of the ω-transaminase activity [2] | accepted as substrate, concluded from the reversibility of the ω-transaminase activity [3] | accepted as substrate, concluded from the reversibility of the ω-transaminase activity [8]

CC(=O)NCCCCNCCCN [N^8-acetylspermidine]
accepts: accepted as substrate [6]

CC(=O)NCCCCCN [acetylcadaverine]
accepts: accepted as substrate [6]

CCCCCN [1-aminopentane]
accepted: accepted as substrate as confirmed against the empty vector control [1] | accepted as substrate as confirmed against the empty vector control [7] | accepted as substrate as confirmed against the empty vector control [2] | accepted as substrate as confirmed against the empty vector control [3] | accepted as substrate as confirmed against the empty vector control [4] | accepted as substrate as confirmed against the empty vector control [5]

CCCCCCCN [1-aminoheptane]
accepted: accepted as substrate as confirmed against the empty vector control [1] | accepted as substrate as confirmed against the empty vector control [7] | accepted as substrate as confirmed against the empty vector control [2] | accepted as substrate as confirmed against the empty vector control [3] | accepted as substrate as confirmed against the empty vector control [4] | accepted as substrate as confirmed against the empty vector control [5]

O=CCCCCO [5-oxopentanol]
accept: accepted as substrate, concluded from the reversibility of the ω-transaminase activity [7] | accepted as substrate, concluded from the reversibility of the ω-transaminase activity [2] | accepted as substrate, concluded from the reversibility of the ω-transaminase activity [3] | accepted as substrate, concluded from the reversibility of the ω-transaminase activity [4] | accepted as substrate, concluded from the reversibility of the ω-transaminase activity [5] | accepted as substrate, concluded from the reversibility of the ω-transaminase activity [8]

CC(=O)NCCCCC=O [N5-acetyl-5-aminopentanal]
accept: accepted as substrate, concluded from the reversibility of the ω-transaminase activity [2] | accepted as substrate, concluded from the reversibility of the ω-transaminase activity [3] | accepted as substrate, concluded from the reversibility of the ω-transaminase activity [4] | accepted as substrate, concluded from the reversibility of the ω-transaminase activity [5] | accepted as substrate, concluded from the reversibility of the ω-transaminase activity [8]
